Data from US4933361A, “Derivatives of bicyclic aminoacids agents containing these compounds and their use” (Hoechst Aktiengesellschaft, priority 1981, dated 1990).
Where a name gives a salt, the structure may show the parent alone.

system: pressor reaction induced by 310 ng of angiotensin I; test: Intraduodenal administration to the anesthetized rat, 50% inhibition of the pressor reaction induced by angiotensin I; assay type: in vivo; conditions: 0.5 h, Table I, H atoms on C-3a and C-(6+n)a cis, 310 ng angiotensin I, 30 min after administration
Text: After administration in the dose . . . =ED50 :

Row | Compound | ED50
1 | C[C@H](N[C@@H](CCc1ccccc1)C(=O)O)C(=O)N1[C@@H]2CCCC[C@@H]2C[C@H]1C(=O)O [Example 20, N-(1S-Carboxy-3-phenylpropyl)-S-alanyl-2S,3aR,7aR-octahydroindole-2-carboxylic acid] | 0.6 mg/kg
2 | CCOC(=O)[C@H](CCc1ccccc1)N[C@@H](C)C(=O)N1[C@@H]2CCC[C@@H]2C[C@H]1C(=O)O [Example 18, N-(1S-Carboethoxy-3-phenylpropyl)-S-alanyl-2S,3aR,6aR-octahydrocyclopenta[b]pyrrole-2-carboxylic acid hydrochloride] | 0.04 mg/kg
3 | C[C@H](N[C@@H](CCc1ccccc1)C(=O)O)C(=O)N1[C@@H]2CCCCC[C@@H]2C[C@H]1C(=O)O [Example 22, N-(1S-Carboxy-3-phenylpropyl)-S-alanyl-2S,3aR,8aR-decahydrocyclohepta[b]pyrrole-2-carboxylic acid] | 0.84 mg/kg
4 | C[C@H](N[C@@H](CCc1ccccc1)C(=O)O)C(=O)N1[C@@H]2CCC[C@@H]2C[C@H]1C(=O)O [Example 21, N-(1S-Carboxy-3-phenylpropyl)-S-alanyl-2S,3aR,6aR-octahydrocyclopenta[b]pyrrole-2-carboxylic acid] | 0.7 mg/kg
5 | CCOC(=O)[C@H](CCc1ccccc1)N[C@@H](C)C(=O)N1[C@@H]2CCCCC[C@@H]2C[C@H]1C(=O)O [Example 19, N-(1S-Carboethoxy-3-phenylpropyl)-S-alanyl-2S,3aR,8aR-decahydrocyclohepta[b]pyrrole-2-carboxylic acid hydrochloride] | 0.23 mg/kg
6 | CCOC(=O)[C@H](CCc1ccccc1)N[C@@H](C)C(=O)N1[C@@H]2CCCC[C@@H]2C[C@H]1C(=O)O [Example 17, N-(1S-Carboethoxy-3-phenylpropyl)-S-alanyl-2S,3aR,7aR-octahydroindole-2-carboxylic acid hydrochloride] | 0.05 mg/kg

same assay, conditions: 0.5 h, Table II, H atoms on C-3a and C-(6+n)a trans, X = phenyl, R1 = methyl, 310 ng angiotensin I, 30 min after administration

Row | Compound | ED50
7 | CCOC(=O)[C@H](CC(=O)c1ccccc1)N[C@@H](C)C(=O)N1[C@H](C(=O)O)C[C@H]2CCCC[C@@H]21 [Example 67, N-(1S-Carboethoxy-3-keto-3-phenylpropyl)-S-alanyl-2S,3aR,7aS-octahydroindole-2-carboxylic acid] | 0.18 mg/kg
8 | C[C@H](N[C@@H](CCc1ccccc1)C(=O)O)C(=O)N1[C@@H]2CCCC[C@H]2C[C@H]1C(=O)O [Example 76, N-(1S-Carboxy-3-phenylpropyl)-S-alanyl-2S,3aS,7aR-octahydroindole-2-carboxylic acid] | 0.85 mg/kg
9 | CCOC(=O)[C@H](CCc1ccccc1)N[C@@H](C)C(=O)N1[C@H](C(=O)O)C[C@H]2CCC[C@@H]21 [Example 44, N-(1S-Carboethoxy-3-phenylpropyl)-S-alanyl-2S,3aR,6aS-octahydrocyclopenta[b]pyrrole-2-carboxylic acid] | 0.04 mg/kg
10 | C[C@H](N[C@@H](CCc1ccccc1)C(=O)O)C(=O)N1[C@H](C(=O)O)C[C@H]2CCC[C@@H]21 [Example 77, N-(1S-Carboxy-3-phenylpropyl)-S-alanyl-2S,3aR,6aS-octahydrocyclopenta[b]pyrrole-2-carboxylic acid] | 0.7 mg/kg
11 | CCOC(=O)[C@H](CCc1ccccc1)N[C@@H](C)C(=O)N1[C@H](C(=O)O)C[C@H]2CCCC[C@@H]21 [Example 42, N-(1S-Carboethoxy-3-phenylpropyl)-S-alanyl-2S,3aR,7aS-octahydroindole-2-carboxylic acid] | 0.055 mg/kg
12 | C[C@H](N[C@@H](CCc1ccccc1)C(=O)O)C(=O)N1[C@H](C(=O)O)C[C@H]2CCCCC[C@@H]21 [Example 79, N-(1S-Carboxy-3-phenylpropyl)-S-alanyl-2S,3aR,6aS-decahydrocyclohepta[b]pyrrole-2-carboxylic acid] | 1.08 mg/kg
13 | C[C@H](N[C@@H](CCc1ccccc1)C(=O)O)C(=O)N1[C@H](C(=O)O)C[C@H]2CCCC[C@@H]21 [Example 75, N-(1S-Carboxy-3-phenylpropyl)-S-alanyl-2S,3aR,7aS-octahydroindole-2-carboxylic acid] | 0.8 mg/kg
14 | CCOC(=O)[C@H](CCc1ccccc1)N[C@@H](C)C(=O)N1[C@H](C(=O)O)C[C@H]2CCCCC[C@@H]21 [Example 46, N-(1S-Carboethoxy-3-phenylpropyl)-S-alanyl-2S,3aR,8aS-decahydrocyclohepta[b]pyrrole-2-carboxylic acid] | 0.11 mg/kg
15 | CCOC(=O)[C@H](CCc1ccccc1)N[C@@H](C)C(=O)N1[C@@H]2CCCC[C@H]2C[C@H]1C(=O)O [Example 43, N-(1S-Carboethoxy-3-phenylpropyl)-S-alanyl-2S,3aS,7aR-octahydroindole-2-carboxylic acid] | 0.065 mg/kg

same assay, conditions: Table I, H atoms on C-3a and C-(6+n)a cis, 310 ng angiotensin I, 30 min after administration

Row | Compound | ED50 (50% inhibition of the pressor reaction induced by angiotensin I)
16 | CCOC(=O)[C@H](CC(=O)c1ccccc1)N[C@@H](C)C(=O)N1C(C(=O)O)CC2CCCCC21.O=C(O)C(F)(F)F (stereo partly drawn) [Example 29, N-(1S-Carboethoxy-3-phenyl-3-oxopropyl)-S-alanyl-2β,3aβ,7aβ-octahydroindole-2-carboxylic acid trifluoroacetate] | 0.39 mg/kg
